Experimental findings from patent US12215104B2, “Anti-biofilm compounds” (UNIVERSITY OF LOUISVILLE RESEARCH FOUNDATION, INC., priority 2018, dated 2025) are described below.

Each structure is given as a SMILES string. Bounds are passed on as bounds.

The first test concerns P. gingivalis adherence to S. gordonii. The test can be described thus: Inhibition of P. gingivalis adherence to S. gordonii in two-species biofilm model. The note with it: Group III. The format is cell-based, P. gingivalis ATCC33277; S. gordonii DL-1. The source says: To assess the functional activity of the click products, compounds 28-57 (Groups I and II) and 90-124 (Group III) were examined for inhibition of P. gingivalis adherence to S. gordonii using an established biofilm model system as described in the Section 4.2.1 [41]. For each compound tested, an IC50 value for adherence inhibition was approximated after quantifying the ratio of green to red fluorescence and these values are shown in Tables 2, 3 and 4. Compounds were classified as strong (IC50<10 μM), moderate (IC50=10-20 μM) or weak (IC50>20 μM) inhibitors of adherence. Twelve compounds were identified as strong inhibitors and an additional ten compounds were classified as moderate inhibitors. […] Compounds 54, 56, 93, 95, 100, 102, 103, and 115 were also tested to determine if they affect the growth of P. gingivalis or S. gordonii. […] The sulfoxide group does impart asymmetry to the molecule; however, the mixture of enantiomers, assuming the peracid oxidation was racemic, was not separated and bioassayed. The Group III active compounds (95-117) all contain the 1,3,5-trisubstituted-2,4,6-triazine modeled after the Katzenellenbogen rendering of an active motif whereby the key leucine residues which mimicked the VXXLL receptor box lie in a triangular arrangement. While the original iteration of the Katzenellenbogen VXXLL mimics were the hydrophobic 3,5-disubstituted-di-N-alkyamino-triazine motifs, we introduced the hydrophobic 2- and 4-(fluorophenyl)amino groups at positions 3 and 5 of the 2,4,6-triazine (See Compounds 102, 111, 115, 122).
P. gingivalis ATCC33277 was grown in reduced trypticase soy broth (Difco) supplemented with 0.5 percent yeast extract, 1 μg/mL menadione, and 5 μg/mL hemin. Twenty five milliliters of medium were reduced for 24 h under anaerobic conditions by equilibrating in an atmosphere consisting of 10% CO2, 10% H2, and 80% N2. Following equilibration, P. gingivalis was inoculated in the media and grown for 48 h at 37° C. under anaerobic conditions. S. gordonii DL-1 (1) was cultured aerobically without shaking in brain heart infusion (BHI) broth supplemented with 1 percent yeast extract for 16 hours at 37° C. For some compounds that inhibited P. gingivalis adherence to S. gordonii, we determined their affect the planktonic growth of P. gingivalis and S. gordonii. Broth cultures were grown as described above and compared to cultures grown in the absence of the compound. Cell density of each culture was determined by measuring the optical density at 600 nm (O.D.600 nm) after 24 h of growth. The percent growth inhibition/stimulation was calculated using the following equation: [(O.D.600 nm of the control/O.D.600 nm of the culture grown in the presence of compound)−1]×100.
Two species biofilms were formed essentially as previously described. To prepare bacterial cells for biofilm culture, 10 ml of an overnight S. gordonii culture was centrifuged at 5600 rpm for 5 min and the cell pellet was suspended in 1 mL sterile PBS. Subsequently, 20 μL of 5 mg/ml hexidium iodide (Molecular Probes) was added to the cell suspension and incubated for 15 min with gentle shaking at room temperature in the dark. The labeled cells were centrifuged as described above, washed with phosphate buffered saline (10 mM Na2HPO4, […], […], and 2.7 mM KCl, pH 7.2; [PBS]) and the cell pellet was suspended in PBS at a final O.D.600 nm of 0.8. Similarly, 10 mL of a 48 h culture of P. gingivalis was centrifuged at 5600 rpm for 15 min, the cell pellet was suspended in 1 mL PBS and 20 μl of 5(6)-carboxyfluorescein N-hydroxysuccinimide ester (4 mg/ml, Molecular Probes, Inc.) was added. After incubation for 30 min with gentle shaking at room temperature in the dark, the suspension was centrifuged and washed as described above and suspended in PBS at a final O.D.600 nm of 0.4. […]
The term IC50 denotes the concentration that inhibits the measured activity by half. `Fc1ccccc1Nc1nc(Nc2ccccc2F)nc(-c2cn(-c3cccc(-c4nc(-c5ccc(Cl)cc5)c(-c5ccc(Cl)cc5)o4)c3)nn2)n1` [Compound 104] came in with an IC50 of 33.8 µM.

Regarding `CCN(CC)c1nc(-c2cn(-c3cccc(-c4nc(-c5ccc(Cl)cc5)c(-c5ccc(Cl)cc5)o4)c3)nn2)nc(N(CC)CC)n1` [Compound 94], the IC50 came out at 16 µM. Consider `Fc1ccccc1Nc1nc(Nc2ccccc2F)nc(-c2cn(-c3cccc(-c4nc(-c5ccco5)c(-c5ccco5)o4)c3)nn2)n1` [Compound 108], for which the IC50 was greater than 60 µM. Still for that read-out and setting: under `CCN(CC)c1nc(-c2cn(-c3cccc(-c4nc(-c5ccc(F)cc5)c(-c5ccc(F)cc5)o4)c3)nn2)nc(N(CC)CC)n1` [Compound 92] stands greater than 60 µM. Regarding `Fc1ccc(Nc2nc(Nc3ccc(F)cc3)nc(-c3cn(-c4ccccc4-c4nc(-c5ccc(Cl)cc5)c(-c5ccc(Cl)cc5)o4)nn3)n2)cc1` [Compound 116], the 50% inhibitory concentration (IC50) was greater than 40 µM. `CCN(CC)c1nc(-c2cn(-c3ccc(-c4nc(-c5ccc(OC)cc5)c(-c5ccc(OC)cc5)o4)cc3)nn2)nc(N(CC)CC)n1` [Compound 97] returned an IC50 of 36.6 µM.

`COc1ccc(-c2nc(-c3cccc(-n4cc(-c5nc(Nc6ccc(F)cc6)nc(Nc6ccc(F)cc6)n5)nn4)c3)oc2-c2ccc(OC)cc2)cc1` [Compound 120] registered an IC50 greater than 60 µM. In the case of `CCN(CC)c1nc(-c2cn(-c3ccc(-c4nc(-c5ccco5)c(-c5ccco5)o4)cc3)nn2)nc(N(CC)CC)n1` [Compound 99], the half-maximal inhibitory concentration (IC50) was greater than 60 µM. `Fc1ccc(Nc2nc(Nc3ccc(F)cc3)nc(-c3cn(-c4cccc(-c5nc(-c6ccc(Cl)cc6)c(-c6ccc(Cl)cc6)o5)c4)nn3)n2)cc1` [Compound 117] yielded an IC50 of 27.8 µM. Still for that read-out and setting: under `Fc1ccccc1Nc1nc(Nc2ccccc2F)nc(-c2cn(-c3ccc(-c4nc(-c5ccco5)c(-c5ccco5)o4)cc3)nn2)n1` [Compound 109] stands greater than 60 µM; under `Fc1ccc(Nc2nc(Nc3ccc(F)cc3)nc(-c3cn(-c4cccc(-c5nc(-c6ccco6)c(-c6ccco6)o5)c4)nn3)n2)cc1` [Compound 123], 8 µM.

The test is the same for the next values; noted with them: Table 2, Group I triazoles; concentration reducing ratio of green (P. gingivalis) to red (S. gordonii) fluorescence by 50%; approximated.
Regarding `O=S(=O)(Cc1nc(-c2ccccc2)c(-c2ccccc2)o1)c1ccc(-n2cc(-c3cccc(F)c3)nn2)cc1` [Compound 39], the concentration for half-maximal inhibition (IC50) was 33.6 µM. Consider `O=S(=O)(Cc1nc(-c2ccccc2)c(-c2ccccc2)o1)c1ccc(-n2cc(-c3ccc(F)cc3)nn2)cc1` [Compound 38], for which the concentration for half-maximal inhibition (IC50) came to 15.7 µM.

For the molecule `[O-][S+](Cc1nc(-c2ccccc2)c(-c2ccccc2)o1)c1ccc(-n2cc(-c3cccc(F)c3)nn2)cc1` (centres unmarked) [Compound 30], the IC50 stood at 47.3 µM. `CCCCCc1ccc(-c2cn(-c3ccc([S+]([O-])Cc4nc(-c5ccccc5)c(-c5ccccc5)o4)cc3)nn2)cc1` (centres unmarked) [Compound 34]: the concentration for half-maximal inhibition (IC50) was greater than 60 µM.

With `[O-][S+](Cc1nc(-c2ccccc2)c(-c2ccccc2)o1)c1ccc(-n2cc(-c3ccc(F)cc3)nn2)cc1` (centres unmarked) [Compound 29], the half-inhibitory concentration (IC50) was greater than 60 µM. Take `O=S(=O)(Cc1nc(-c2ccccc2)c(-c2ccccc2)o1)c1ccc(-n2cc(-c3ccccc3C(F)(F)F)nn2)cc1` [Compound 41]: the concentration for half-maximal inhibition (IC50) is greater than 60 µM. On to `COc1ccccc1-c1cn(-c2ccc(S(=O)(=O)Cc3nc(-c4ccccc4)c(-c4ccccc4)o3)cc2)nn1` [Compound 40], for which the IC50 amounted to 13.1 µM.

Staying with this test, now noted: Table 3, Group II click products; concentration reducing green to red fluorescence ratio by 50%; approximated.
For the molecule `[O-][S+](Cc1nc(-c2ccc(Cl)cc2)c(-c2ccc(Cl)cc2)o1)c1ccc(-n2cc(-c3cccc(F)c3)nn2)cc1` (centres unmarked) [Compound 49], the half-inhibitory concentration (IC50) was 15.1 µM. Still for that read-out and setting: the value for `COc1ccccc1-c1cn(-c2ccc([S+]([O-])Cc3nc(-c4ccc(F)cc4)c(-c4ccc(F)cc4)o3)cc2)nn1` (centres unmarked) [Compound 48] was 7.2 µM; that for `[O-][S+](Cc1nc(-c2ccc(F)cc2)c(-c2ccc(F)cc2)o1)c1ccc(-n2cc(-c3ccc(F)cc3)nn2)cc1` (centres unmarked) [Compound 47] was 35.9 µM. `[O-][S+](Cc1nc(-c2ccc(F)cc2)c(-c2ccc(F)cc2)o1)c1ccc(-n2cc(-c3cccc(F)c3)nn2)cc1` (centres unmarked) [Compound 46]: the IC50 was 5.3 µM.

Still in this test, the particulars now being: read-out: IC50 for inhibition of adherence of P. gingivalis to S. gordonii.
As for `Fc1ccc(Nc2nc(Nc3ccc(F)cc3)nc(-c3cn(-c4cccc(-c5nc(-c6ccc(Cl)cc6)c(-c6ccc(Cl)cc6)o5)c4)nn3)n2)cc1` [Compound 117], the IC50 is 2.3 to 5.3 µM.
